From ChEMBL document CHEMBL1201862, “PubChem BioAssay data set” (2004)
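How tested: cells in 96-well plates exposed to compound for 48 hours at five concentrations. GI50 is the concentration that inhibits growth by half.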 Calls of active or inactive are those of the source. Cut-off read from the data, not from the text of the source: active = GI50 up to about 1.1 µM and inactive = higher.

Experiments:
Test in all cases: NCI tumour cell line growth inhibition, 48 h
EKVX = test system: EKVX
HCC 2998 = test system: HCC 2998
786-0 = test system: 786-0
MCF7 = test system: MCF7
TK-10 = test system: TK-10
SNB-75 = test system: SNB-75
PC-3 = test system: PC-3
RPMI-8226 = test system: RPMI-8226
HCT-15 = test system: HCT-15
NCI-H226 = test system: NCI-H226
SK-MEL-28 = test system: SK-MEL-28
SF-295 = test system: SF-295
SK-MEL-5 = test system: SK-MEL-5
Hs-578T = test system: Hs-578T
NCI/ADR-RES = test system: NCI/ADR-RES
UO-31 = test system: UO-31
OVCAR-3 = test system: OVCAR-3
NCI-H460 = test system: NCI-H460
OVCAR-5 = test system: OVCAR-5
RXF 393 = test system: RXF 393

## CSc1nc(SC)c2c(CN=[N+]=[N-])c(Br)n(Cc3ccccc3)c2n1
EKVX
  GI50: > 100 µM (inactive)
HCC 2998
  GI50: > 100 µM (inactive)
786-0
  GI50: > 100 µM (inactive)
MCF7
  GI50: > 100 µM (inactive)
TK-10
  GI50: > 100 µM (inactive)
SNB-75
  GI50: 51.3 µM (inactive)
PC-3
  GI50: > 100 µM (inactive)
RPMI-8226
  GI50: > 100 µM (inactive)
HCT-15
  GI50: > 100 µM
NCI-H226
  GI50: 83.8 µM (inactive)
SK-MEL-28
  GI50: > 100 µM (inactive)
SF-295
  GI50: 36.1 µM (inactive)
SK-MEL-5
  GI50: > 100 µM (inactive)
Hs-578T
  GI50: 53.1 µM (inactive)
NCI/ADR-RES
  GI50: > 100 µM (inactive)
UO-31
  GI50: > 100 µM (inactive)
OVCAR-3
  GI50: > 100 µM (inactive)
NCI-H460
  GI50: > 100 µM (inactive)
OVCAR-5
  GI50: > 100 µM (inactive)

## COC(=O)c1c(O)ccc2c1c1c(n2CCc2ccc(OC)c(OC)c2)C(=O)c2ccccc2C1=O
EKVX
  GI50: 20.5 µM (inactive)
HCC 2998
  GI50: 4.29 µM (inactive)
786-0
  GI50: 13.8 µM (inactive)
MCF7
  GI50: 17.9 µM (inactive)
RXF 393
  GI50: 16.8 µM (inactive)
TK-10
  GI50: 21.6 µM (inactive)
PC-3
  GI50: 14.9 µM (inactive)
RPMI-8226
  GI50: 6.55 µM (inactive)
HCT-15
  GI50: 12.7 µM
NCI-H226
  GI50: 19.6 µM (inactive)
SK-MEL-28
  GI50: 11.6 µM (inactive)
SF-295
  GI50: 19.6 µM (inactive)
SK-MEL-5
  GI50: 11.4 µM (inactive)
Hs-578T
  GI50: 10.9 µM (inactive)
NCI/ADR-RES
  GI50: 10.8 µM (inactive)
UO-31
  GI50: 13.7 µM (inactive)
OVCAR-3
  GI50: 16.3 µM (inactive)
NCI-H460
  GI50: 5.01 µM (inactive)
OVCAR-5
  GI50: 19.7 µM (inactive)

## Cc1ccc(NC(=O)c2cc(S(=O)(=O)Nc3n[nH]c(=O)[nH]3)c(SSc3cc(Cl)c(C(=O)Nc4ccc(C)cc4)cc3S(=O)(=O)Nc3n[nH]c(=O)[nH]3)cc2Cl)cc1
EKVX
  GI50: > 100 µM (inactive)
HCC 2998
  GI50: > 100 µM (inactive)
786-0
  GI50: > 100 µM (inactive)
MCF7
  GI50: > 100 µM (inactive)
TK-10
  GI50: > 100 µM (inactive)
SNB-75
  GI50: > 100 µM (inactive)
PC-3
  GI50: > 100 µM (inactive)
RPMI-8226
  GI50: > 100 µM (inactive)
HCT-15
  GI50: > 100 µM
NCI-H226
  GI50: > 100 µM (inactive)
SK-MEL-28
  GI50: > 100 µM (inactive)
SF-295
  GI50: > 100 µM (inactive)
SK-MEL-5
  GI50: > 100 µM (inactive)
Hs-578T
  GI50: > 100 µM (inactive)
NCI/ADR-RES
  GI50: > 100 µM (inactive)
UO-31
  GI50: > 100 µM (inactive)
OVCAR-3
  GI50: > 100 µM (inactive)
NCI-H460
  GI50: > 100 µM (inactive)
OVCAR-5
  GI50: > 100 µM (inactive)

## CCn1c2nc(=O)n(CCCCCCCCSC(c3ccccc3)(c3ccccc3)c3ccccc3)c(=O)c-2nc2ccccc21
EKVX
  GI50: 7.83 µM (inactive)
HCC 2998
  GI50: 2.67 µM (inactive)
786-0
  GI50: 14.6 µM (inactive)
MCF7
  GI50: 6.19 µM (inactive)
RXF 393
  GI50: 11.3 µM (inactive)
TK-10
  GI50: 43.9 µM (inactive)
PC-3
  GI50: 4.9 µM (inactive)
RPMI-8226
  GI50: 4.22 µM (inactive)
HCT-15
  GI50: 8.38 µM
NCI-H226
  GI50: > 100 µM (inactive)
SK-MEL-28
  GI50: 53.3 µM (inactive)
SF-295
  GI50: 20.4 µM (inactive)
SK-MEL-5
  GI50: 3.44 µM (inactive)
Hs-578T
  GI50: 3.33 µM (inactive)
NCI/ADR-RES
  GI50: > 100 µM (inactive)
UO-31
  GI50: 6.65 µM (inactive)
OVCAR-3
  GI50: 6.7 µM (inactive)
NCI-H460
  GI50: 4.62 µM (inactive)
OVCAR-5
  GI50: > 100 µM (inactive)

## COc1ccc(C2C(=O)c3c(OC)cc(OC)cc3OC2c2cccnc2)cc1 (stereo unspecified)
EKVX
  GI50: > 100 µM (inactive)
HCC 2998
  GI50: > 100 µM (inactive)
786-0
  GI50: > 100 µM (inactive)
MCF7
  GI50: > 100 µM (inactive)
RXF 393
  GI50: > 100 µM (inactive)
TK-10
  GI50: > 100 µM (inactive)
SNB-75
  GI50: 27.4 µM (inactive)
PC-3
  GI50: > 100 µM (inactive)
HCT-15
  GI50: > 100 µM
NCI-H226
  GI50: 43.8 µM (inactive)
SK-MEL-28
  GI50: > 100 µM (inactive)
SF-295
  GI50: 53.5 µM (inactive)
SK-MEL-5
  GI50: > 100 µM (inactive)
Hs-578T
  GI50: > 100 µM (inactive)
NCI/ADR-RES
  GI50: > 100 µM (inactive)
UO-31
  GI50: 32.2 µM (inactive)
OVCAR-3
  GI50: > 100 µM (inactive)
NCI-H460
  GI50: 92.7 µM (inactive)
OVCAR-5
  GI50: > 100 µM (inactive)

## COc1cc(C(CN)N(C)C)cc(OC)c1OC (stereo unspecified)
EKVX
  GI50: > 100 µM (inactive)
HCC 2998
  GI50: > 100 µM (inactive)
786-0
  GI50: > 100 µM (inactive)
MCF7
  GI50: > 100 µM (inactive)
RXF 393
  GI50: > 100 µM (inactive)
TK-10
  GI50: > 100 µM (inactive)
PC-3
  GI50: > 100 µM (inactive)
HCT-15
  GI50: > 100 µM
NCI-H226
  GI50: 29.6 µM (inactive)
SK-MEL-28
  GI50: > 100 µM (inactive)
SF-295
  GI50: > 100 µM (inactive)
SK-MEL-5
  GI50: > 100 µM (inactive)
Hs-578T
  GI50: > 100 µM (inactive)
NCI/ADR-RES
  GI50: > 100 µM (inactive)
UO-31
  GI50: > 100 µM (inactive)
OVCAR-3
  GI50: > 100 µM (inactive)
NCI-H460
  GI50: > 100 µM (inactive)
OVCAR-5
  GI50: > 100 µM (inactive)

## N/N=C(\N)SCCCCCCCCCCS/C(N)=N/N
EKVX
  GI50: 31.1 µM (inactive)
HCC 2998
  GI50: 22.4 µM (inactive)
786-0
  GI50: 31.5 µM (inactive)
MCF7
  GI50: 23.6 µM (inactive)
TK-10
  GI50: 20.3 µM (inactive)
PC-3
  GI50: 34.6 µM (inactive)
RPMI-8226
  GI50: 23.3 µM (inactive)
HCT-15
  GI50: 14.3 µM
NCI-H226
  GI50: 27 µM (inactive)
SK-MEL-28
  GI50: 37.8 µM (inactive)
SF-295
  GI50: 23 µM (inactive)
SK-MEL-5
  GI50: 21 µM (inactive)
Hs-578T
  GI50: 30.8 µM (inactive)
NCI/ADR-RES
  GI50: 21.1 µM (inactive)
UO-31
  GI50: 15.1 µM (inactive)
OVCAR-3
  GI50: 19.7 µM (inactive)
NCI-H460
  GI50: 15.9 µM (inactive)
OVCAR-5
  GI50: 45.4 µM (inactive)
